Assay results reported in US10736967B2, “Method of preparing cyclodextrin complexes” (Panaceanano, Inc., priority 2016, dated 2020).

What was measured:
[1] = cited from earlier work
[2] = Water solubility of salicylic acid by UV-VIS: loaded in γCD-MOF, without additive, or with γCD and KOH; type: physicochemical
Protocol: The dry, loaded CD-MOF samples were then dissolved in 10 mL water and stirred.
All water solubility shown in FIGS. 2-4 below were measured at room temperature.

[3] = 30% loading (150 mg salicylic acid) in a 500 mg γCD-MOF sample, room temperature, FIG. 3 curve 20
[4] = added directly into a solution containing equivalent amounts of γCD and KOH (500 mg sample), room temperature, FIG. 3 curve 22
[5] = un-complexed salicylic acid in the absence of a CD-MOF, room temperature, FIG. 3 curve 21

| SMILES | solubility in water [1] | percentage of solubilized salicylic acid in 10 mL of water compared with no additive ([2]; 100 mg CD-MOF sample, loading percentage range of about 25-500%, FIG. 2 curve 10 vs curve 11) | amount of salicylic acid solubilized in 10 mL of water (maximum reached) ([2]; 500 mg CD-MOF sample used as intermediate, room temperature, FIG. 4 curve 31) | percentage of solubilized salicylic acid in 10 mL of water compared with no additive and with γCD and KOH ([2]; 500 mg CD-MOF sample, loading percentage 10-100%, FIG. 3 curve 20 vs curves 21 and 22) | amount of salicylic acid solubilized in 10 mL of water [2, 3] | percentage of solubilized salicylic acid in 10 mL of water [2, 3] | maximum amount of salicylic acid dissolved in 10 mL of water ([2]; absence of any additive, room temperature, FIG. 4 curve 33) | amount of salicylic acid solubilized in 10 mL of water [2, 4] | percentage of solubilized salicylic acid in 10 mL of water [2, 4] | amount of salicylic acid solubilized in 10 mL of water [2, 5] | percentage of solubilized salicylic acid in 10 mL of water [2, 5] |
| --- | --- | --- | --- | --- | --- | --- | --- | --- | --- | --- | --- |
| OC[C@H]1O[C@@H]2O[C@H]3[C@H](O)[C@@H](O)[C@@H](O[C@H]4[C@H](O)[C@@H](O)[C@@H](O[C@H]5[C@H](O)[C@@H](O)[C@@H](O[C@H]6[C@H](O)[C@@H](O)[C@@H](O[C@H]7[C@H](O)[C@@H](O)[C@@H](O[C@H]1[C@H](O)[C@H]2O)O[C@@H]7CO)O[C@@H]6CO)O[C@@H]5CO)O[C@@H]4CO)O[C@@H]3CO [α-CD, α cyclodextrin] | about 145 mg/mL |  |  |  |  |  |  |  |  |  |  |
| O=C(O)c1ccccc1O [salicylic acid] |  | higher | up to 110 mg | significantly higher | about 103 mg | about 69% | about 20 mg | about 58.5 mg | approximately 39% | about 20 mg | approximately 13% |
